Measured values as given in patent publication US20190135787A1, “PYRIMIDINE COMPOSITIONS, ULTRA-PURE COMPOSITIONS AND SALTS THEREOF, METHODS OF MAKING THE SAME, AND METHODS OF USING THE SAME FOR TREATING HISTAMINE H4 RECEPTOR (H4) MEDIATED DISEASES AND CONDITIONS” (Novartis AG, priority 2015, published 2019).

What was measured:
[1] = Salt screen: physical stability under accelerated aging conditions (HT-XRPD); type: physicochemical; conditions: 40° C., 75% RH, two days, code+number = crystalline salt form, 0 = crystalline counter ion itself
Procedure: XRPD patterns were obtained using the Crystallics T2 high-throughput XRPD set-up. The plates were mounted on a Bruker General Area Detector Diffraction System (GADDS) equipped with a VANTEC-500 gas area detector corrected for intensity and geometric variations. The calibration of the measurement accuracy (peaks position) was performed using NIST SRM1976 standard (Corundum).
Data collection was carried out at room temperature using monochromatic CuKα radiation in the 2θ region between 1.5° and 41.5°, which is the most distinctive part of the XRPD pattern. The diffraction pattern of each well was collected in two 20 ranges (1.5°≤2θ≤21.5° for the first frame, and 19.5°≤2θ≤41.5° for the second) with an exposure time of 90s for each frame. No background subtraction or curve smoothing was applied to the XRPD patterns.
Approximately 175 mg of N^4-(cyclopropylmethyl)-6-[(3R)-3-(methylamino)pyrrolidin-1-yl]pyrimidine-2,4-diamine in 1-Butanol and Dichloromethane were combined with a slight molar excess of either solid or liquid counter ion. Samples were incubated at RT. After 5 days the solids were collected, dried under vacuum and analyzed by HT-XRPD (XRPD 1).
Subsequently, the solids were exposed to accelerated aging conditions (40° C., 75% RH) for two days and re-analyzed by HT-XRPD (XRPD 2). Crystalline salts (polymorphs) are indicated with the abbreviated counter ion code and a number (1, 2, etc.). The number zero (0) indicates the crystalline counter ion itself.

[2] = Dynamic vapor sorption (DVS); type: physicochemical; conditions: 25° C.
Procedure: Moisture sorption isotherms were collected on a DVS-1 system from Surface Measurement Systems (London, UK). Typical sample size is between 5 and 10 mg of solid material. The relative humidity was cycled between 40% to 0% (desorption), up to 95% (sorption), back to 0% RH (desorption) and up to 95% RH (sorption) in steps of 10% at a constant temperature of 25° C. with an initial stabilizing step at 40% RH for 6 hours.

[3] = test system: adult subjects with moderate to severe atopic dermatitis; test: Phase 2a study in moderate to severe atopic dermatitis; type: in vivo, human; conditions: 8 weeks
Procedure: Following the phase 1 trials, a phase 2a trial was conducted to evaluate the efficacy of 8 weeks of treatment with 30 mg ZPL-389 administered once daily in adult subject with moderate to severe atopic dermatitis. The study was also designed to assess the safety and tolerability of ZPL-389 in adult subjects with moderate to severe atopic dermatitis.
This study was a randomized, double blind, placebo controlled, parallel group study of subjects having a pruritus Numerical Rating Scale (NRS) of ≥5 (0-10 scale), an Investigator's Global Assessment (IGA)≥3 (0-3 scale), and moderate-severe AD Eczema Area and Severity Index (EAST)≥12 and ≤48 (0-72 scale). In addition, subjective patient reported outcome instruments include: Ziarco Itch Diary (Electronic) Pruritus; 5D Pruritus Scale; Dermatology Life Quality Index (DLQI); and Patient Global Impression of Change (PGIG).
Each subject (aged 18-65 years) had one or more screening visits to confirm suitability to enter the study. 98 subjects with moderate to severe atopic dermatitis were randomized 2:1 to receive orally either 30 mg ZPL-389 or placebo once daily for eight weeks (56 days).
Efficacy endpoints for the trial include the following: • change from baseline in NRS for pruritus (worst itch) over 24 hours; • change from baseline in daytime NRS for pruritus (worst itch); • change from baseline in night time NRS for pruritus (worst itch); • change from baseline in NRS for sleep disturbance; • change from baseline in duration of itching; • change from baseline in verbal rating score for pruritus; • change from baseline in EASI score; • change from baseline in SCORAD score; • IGA score; • amount of rescue medication use; and/or • PGIC.

[4] = Phase 1 trials, single and multiple ascending doses; type: in vivo, human
Procedure: In phase 1 trials, 62 subjects were treated with ZPL-389.

mild asthmatics = conditions: 36 mg, two single oral doses 12 hours apart; cited from earlier work

| XRPD2: solid form after accelerated aging ([1]; solid from 1-butanol) | XRPD2: solid form after accelerated aging ([1]; solid from dichloromethane) | Molecule | other results |
| --- | --- | --- | --- |
| Amorphous | Amorphous | O=C(O)C(O)c1ccccc1 (racemic) [DL-Mandelic acid] | – |
| ABen1 + ABen0 | ABen1 + ABen0 | CC(=O)Nc1ccc(C(=O)O)cc1 [4-acetamido-Benzoic acid] | – |
| Amorphous | Amorphous | CC(=O)O [Acetic acid] | – |
| Amorphous | Amorphous | O=C[C@H](O)[C@@H](O)[C@H](O)[C@H](O)C(=O)O [D-Glucuronic acid] | – |
| Eds1 + Eds2 | Eds1 | O=S(=O)(O)CCS(=O)(=O)O [Ethane-1,2-disulfonic acid] | – |
| – | – | CN[C@@H]1CCN(c2cc(NCC3CC3)nc(N)n2)C1.O.O.O=C(O)C(O)C(O)C(=O)O [Example 4, N^4-(cyclopropylmethyl)-6-[(3R)-3-(methylamino)pyrrolidin-1-yl]pyrimidine-2,4-diamine tartrate dihydrate] | total mass uptake ([2]; 20-30% RH): 6.9%; RH at which the dehydration step occurs during desorption [2]: below 10 % RH; water uptake (mass uptake) ([2]; between 0-20% RH): 1.9%; weight ([2]; between 30-90% RH): remains stable |
| Gen2 | Gen2 | O=C(O)c1cc(O)ccc1O [Gentisic acid] | – |
| Gltm0 | Amorphous | N[C@@H](CCC(=O)O)C(=O)O [Glutamic acid] | – |
| Amorphous | Amorphous | O=C(O)CNC(=O)c1ccccc1 [Hippuric acid] | – |
| Amorphous | Amorphous | Br [Hydrobromic acid] | – |
| Asp0 | Amorphous | N[C@@H](CC(=O)O)C(=O)O [L-Aspartic acid] | – |
| Amorphous | Amorphous | CS(=O)(=O)O [Methanesulfonic acid] | – |
| Nap1 + Nap0 | Amorphous | O=S(=O)(O)c1ccc2ccccc2c1 [Naphtalene-2-sulfonic acid] | – |
| Pho2 plus | Pho3 | O=P(O)(O)O [Phosphoric acid] | – |
| Sal1 plus | Amorphous | O=C(O)c1ccccc1O [Salicylic acid] | – |
| Ste0 + Ste1 | Ste0 + Ste1 | CCCCCCCCCCCCCCCCCC(=O)O [Stearic acid] | – |
| – | – | CN[C@@H]1CCN(c2cc(NCC3CC3)nc(N)n2)C1 [ZPL-389, N^4-(cyclopropylmethyl)-6-[(3R)-3-(methylamino)pyrrolidin-1-yl]pyrimidine-2,4-diamine] | Treatment Emergent Adverse Events (TEAE) vs placebo ([3]; 30 mg once daily): no differences; rescue medication use vs placebo ([3]; 30 mg once daily): lower; tolerability / safety profile ([3]; 30 mg once daily, comparable to placebo): well tolerated; pruritus ([3]; 30 mg once daily, statistically significant compared to baseline): markedly reduced; IGA reduction ([3]; 30 mg orally once daily, placebo 25%): 36%; pharmacokinetics, dose dependence ([4]; phase 1 trials): dose-proportional pharmacokinetics; majority of observed adverse events ([4]; single doses 0.01-48 mg, 5, 15 and 50 mg once daily for 14 days): mild, transient, and non-dose related; tolerability ([4]; single doses 0.01-48 mg, 5, 15 and 50 mg once daily for 14 days, 62 subjects): safely tolerated; efficacy in mild asthma (mild asthmatics): no efficacy was observed |
| Amorphous | Amorphous | (−)-L-Malic acid | – |
| Amorphous | Amorphous | Benzenesulfonic acid | – |
| Amorphous | Amorphous | Ethanesulfonic acid | – |
| Amorphous | Fum0 + Fum3 | Fumaric acid | – |
| Amorphous | Amorphous | Lactic acid | – |
| Amorphous | Amorphous | Maleic acid | – |
| Oxa3 | Oxa3 | Oxalic acid | – |

| Molecule | XRPD2: solid form after accelerated aging ([1]; solid from 1-butanol) | XRPD2: solid form after accelerated aging ([1]; solid from dichloromethane) | other results |
| --- | --- | --- | --- |
| O=C(O)[C@H](O)[C@@H](O)C(=O)O [(+)-L-Tartaric acid] | Amorphous | Amorphous | – |
| O=C(O)[C@H](O)[C@@H](O)[C@H](O)[C@H](O)CO [Gluconic acid] | Amorphous | Amorphous | – |
| O=C(O)CCCC(=O)O [Glutaric acid] | Glut1 | Glut1 | – |
| Cl [Hydrochloric acid] | Amorphous | Amorphous | – |
| O=S(=O)(O)O [Sulfuric acid] | Amorphous | Amorphous | – |
| Benzoic acid | Ben1 + Ben2 plus | Ben1 + Ben2 plus | – |
| Citric acid | Amorphous | Amorphous | – |
